Key:
Format in all cases: functional
[1] = system: A549; experiment: Cytotoxicity against human A549 cells
[2] = system: P388; experiment: Cytotoxicity against mouse P388 cells
[3] = system: HT-29; experiment: Cytotoxicity against human HT29 cells
[4] = system: SK-MEL-28; experiment: Cytotoxicity against human SK-MEL-28 cells

Measured: GI50

CC(C)=C1C=C2[C@@H](CC[C@@H]2C)[C@@H](C)CC1=O [GUAIACOPHINE]
10 µM: all assays above

COC(=O)/C1=C\CC/C(C)=C/[C@@H]2OC(=O)C(C)=C2C[C@H](OC(C)=O)/C(C)=C/CC1
10 µM: all assays above

COC(=O)[C@]12CC(=O)[C@H](C(C)C)CC(=O)[C@H](C)CCC[C@H](C)CC(=O)[C@H]1CC(C)=C1C[C@H](OC(C)=O)[C@](C)(O)[C@H]3CC[C@@](C)(O)[C@H](CC/C(C)=C/[C@@H]12)O3 [NYALOLIDE]
10 µM: all assays above

Reference: ChEMBL document CHEMBL1148196, “Isoprenoids of the soft coral Sarcophyton glaucum: Nyalolide, a new biscembranoid, and other terpenoids” (2004)
